Measured values from ChEMBL document CHEMBL1201862, “PubChem BioAssay data set” (2004).
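How tested: cells in 96-well plates exposed to compound for 48 hours at five concentrations. At the GI50, growth is halved.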 The source made the active and inactive calls. Cut-off read from the data, not from the text of the source: active = GI50 up to about 1.1 µM and inactive = higher.

What was measured:
Assay in all cases: NCI-60 cell line screen, 48 h
SNB-19 = tested on: SNB-19
SN12C = tested on: SN12C
IGROV-1 = tested on: IGROV-1
SK-MEL-5 = tested on: SK-MEL-5
SF-539 = tested on: SF-539
HCT-15 = tested on: HCT-15
SK-MEL-28 = tested on: SK-MEL-28
SNB-75 = tested on: SNB-75
T47D = tested on: T47D
HCC 2998 = tested on: HCC 2998
HT-29 = tested on: HT-29
TK-10 = tested on: TK-10
KM12 = tested on: KM12
RXF 393 = tested on: RXF 393
ACHN = tested on: ACHN
786-0 = tested on: 786-0
K562 = tested on: K562
LOX IMVI = tested on: LOX IMVI
SK-MEL-2 = tested on: SK-MEL-2
EKVX = tested on: EKVX
MDA-MB-435 = tested on: MDA-MB-435
U-251 = tested on: U-251
OVCAR-4 = tested on: OVCAR-4
NCI-H522 = tested on: NCI-H522
Hs-578T = tested on: Hs-578T
COLO 205 = tested on: COLO 205
SR = tested on: SR
Malme-3M = tested on: Malme-3M
CCRF-CEM = tested on: CCRF-CEM
MDA-N = tested on: MDA-N
PC-3 = tested on: PC-3
MCF7 = tested on: MCF7
RPMI-8226 = tested on: RPMI-8226
NCI/ADR-RES = tested on: NCI/ADR-RES
A549 = tested on: A549
SW-620 = tested on: SW-620
DU-145 = tested on: DU-145
M14 = tested on: M14
HOP-62 = tested on: HOP-62
HL-60 = tested on: HL-60
OVCAR-8 = tested on: OVCAR-8
CAKI-1 = tested on: CAKI-1
HCT-116 = tested on: HCT-116
UACC-257 = tested on: UACC-257
SF-295 = tested on: SF-295
NCI-H23 = tested on: NCI-H23
OVCAR-3 = tested on: OVCAR-3
SF-268 = tested on: SF-268
UACC-62 = tested on: UACC-62
A498 = tested on: A498
OVCAR-5 = tested on: OVCAR-5
HOP-92 = tested on: HOP-92
MDA-MB-231 = tested on: MDA-MB-231
UO-31 = tested on: UO-31
NCI-H460 = tested on: NCI-H460
NCI-H226 = tested on: NCI-H226
BT-549 = tested on: BT-549
MOLT-4 = tested on: MOLT-4
SK-OV-3 = tested on: SK-OV-3

Measured: GI50

O=C1c2[nH]c3ccc(Br)cc3c2CCN1Cc1ccc(Cl)cc1
inactive: SNB-19 15.1 µM | SN12C 19.3 µM | IGROV-1 16.7 µM | SK-MEL-5 10.9 µM | SF-539 10.7 µM | SK-MEL-28 14.7 µM | SNB-75 20.9 µM | T47D 13.4 µM | HCC 2998 14.5 µM | HT-29 > 100 µM | TK-10 13.7 µM | KM12 14.1 µM | RXF 393 16.9 µM | ACHN 10.8 µM | 786-0 11.3 µM | K562 8.79 µM | LOX IMVI 12.5 µM | SK-MEL-2 19.1 µM | EKVX > 100 µM | MDA-MB-435 14.4 µM | U-251 12.5 µM | OVCAR-4 18.6 µM | NCI-H522 17.9 µM | Hs-578T 17.1 µM | COLO 205 17.7 µM | SR 8.79 µM | Malme-3M 15.3 µM | CCRF-CEM 12.3 µM | MDA-N 14.7 µM | PC-3 4.74 µM | MCF7 16.6 µM | RPMI-8226 > 10 µM | NCI/ADR-RES 17.2 µM | A549 12.7 µM | SW-620 16.5 µM | DU-145 14.2 µM | M14 13.2 µM | HOP-62 12.9 µM | HL-60 17.3 µM | OVCAR-8 18.7 µM | CAKI-1 19.5 µM | HCT-116 10.4 µM | UACC-257 15.3 µM | SF-295 12.8 µM | NCI-H23 17.1 µM | OVCAR-3 15.2 µM | SF-268 12.7 µM | UACC-62 14.1 µM | A498 17.1 µM | OVCAR-5 12.5 µM | HOP-92 16.2 µM | MDA-MB-231 11.9 µM | UO-31 16.4 µM
3.99 µM: HCT-15

CCOC(=O)c1cn(-c2ccc(Cl)cc2)c(=O)n2c1nc1ccccc12
inactive: SNB-19 > 100 µM | SN12C > 100 µM | IGROV-1 > 100 µM | SK-MEL-5 > 100 µM | SF-539 > 100 µM | SK-MEL-28 > 100 µM | SNB-75 > 100 µM | T47D > 100 µM | HCC 2998 > 100 µM | HT-29 88.3 µM | KM12 > 100 µM | RXF 393 > 100 µM | NCI-H460 > 100 µM | ACHN > 100 µM | 786-0 > 100 µM | K562 > 100 µM | LOX IMVI > 100 µM | NCI-H226 > 100 µM | SK-MEL-2 > 100 µM | EKVX > 100 µM | MDA-MB-435 > 100 µM | U-251 > 100 µM | OVCAR-4 > 100 µM | BT-549 > 100 µM | COLO 205 > 100 µM | SR > 100 µM | CCRF-CEM > 100 µM | PC-3 > 100 µM | MCF7 > 100 µM | RPMI-8226 > 100 µM | NCI/ADR-RES > 100 µM | A549 > 100 µM | SW-620 > 100 µM | DU-145 > 100 µM | M14 > 100 µM | HOP-62 > 100 µM | MOLT-4 > 100 µM | OVCAR-8 > 100 µM | CAKI-1 > 100 µM | HCT-116 > 100 µM | UACC-257 > 100 µM | SF-295 > 100 µM | NCI-H23 > 100 µM | OVCAR-3 > 100 µM | UACC-62 > 100 µM | A498 > 100 µM | OVCAR-5 > 100 µM | HOP-92 > 100 µM | MDA-MB-231 > 100 µM | UO-31 > 100 µM
> 100 µM: HCT-15

O=C1Oc2ccccc2C(=O)/C1=C/N1C(=O)/C(=C/c2ccc3c(c2)OCO3)SC1=S
15.8 µM: HCT-15
active: OVCAR-3 0.405 µM
inactive: SN12C 18.2 µM | IGROV-1 13.6 µM | SK-MEL-5 15.7 µM | SF-539 11.5 µM | SK-MEL-28 17.3 µM | SNB-75 11.1 µM | T47D 13.6 µM | HCC 2998 17.3 µM | HT-29 21.2 µM | KM12 16.8 µM | RXF 393 17.2 µM | NCI-H460 16.8 µM | ACHN 11.8 µM | 786-0 43.4 µM | K562 16.6 µM | LOX IMVI 33.3 µM | NCI-H226 11.5 µM | SK-MEL-2 17.2 µM | EKVX 28.5 µM | MDA-MB-435 18.7 µM | U-251 10 µM | OVCAR-4 20.8 µM | NCI-H522 15.8 µM | Hs-578T 1.32 µM | COLO 205 20.5 µM | SR 15.8 µM | Malme-3M 19.8 µM | CCRF-CEM 26.1 µM | MDA-N 24.9 µM | PC-3 15.8 µM | MCF7 20.7 µM | RPMI-8226 14.1 µM | NCI/ADR-RES 18.5 µM | SK-OV-3 22.5 µM | A549 18.1 µM | SW-620 22.8 µM | DU-145 19.1 µM | M14 17.9 µM | HOP-62 14.6 µM | HL-60 26.9 µM | MOLT-4 17.5 µM | OVCAR-8 17.6 µM | CAKI-1 17.5 µM | HCT-116 33.7 µM | UACC-257 24.3 µM | SF-295 22.9 µM | NCI-H23 11.8 µM | SF-268 13.7 µM | UACC-62 28.2 µM | A498 3.99 µM | OVCAR-5 16.6 µM | MDA-MB-231 25.1 µM
